Our source for the pest or weed control values is patent US4175081A, “5-Substituted thiadiazole ureas” (priority 1977, dated 1979).

Experiment [1] relates to Crabgrass (CG). As to the kind of experiment: Post-emergence herbicide test. The format is in vivo, Digitaria sanquinalis. The note with it: Digitaria sanguinalis, post-emergence, 336 h, two weeks after treatment; for pest or weed control at 4483.4 g/ha: 4 lb/acre; for pest or weed control at 8966.8 g/ha: 8 lb/acre. The method, then:
(§1) Crabgrass (CG)--Digitaria sanquinalis
(§2) All crop and weed species were planted individually in 3' plastic pots containing potting soil. Four seeds each of corn, cotton, and snapbeans were seeded to a depth equal to the diameter of the seed. All other species were surface seeded and sprinkled with screened soil in an amount sufficient to cover the seed. Immediately after planting, all pots were watered by sub-irrigation in greenhouse trays. Pots for the pre-emergence phase were seeded one day before treatment.
(§3) Planting dates for the post-emergence phase were varied so that all seedlings would reach the desired stage of development simultaneously. The proper stage of seedling development for treatment in the post-emergence phase is as follows:
(§4) Spray hood constants required to deliver the above volume are as follows:
(§5) Formulations for spray applications were prepared in 50 ml volumes with the following three components: […]
(§6) Spray applications were made in a hood containing a removable belt and fixed spray nozzle. For passage through the spray hood, one pot of each specie (pre-emergence phase) was placed on the rear half of the flat. Treatments were removed to the greenhouse after spraying. Watering during the observation period was done only by sub-irrigation.
(§7) Two weeks after treatment, pre- and post-emergence injury or control was visually rated, and the results were as shown in the following tables. Pre-emergence data are provided in TABLE III and post-emergence data are provided in TABLE IV, for compounds having the formula illustrated in TABLE I. Correspondingly, pre-emergence and post-emergence data, respectively, are set forth in TABLES V AND VI, for compounds having the formula illustrated in TABLE II.

Experiment [2] has as its system Johnson grass (JG). As to the kind of experiment: Post-emergence herbicide test. The format is in vivo, Sorgum helepense. The conditions noted are these: Sorghum halepense, 336 h, two weeks after treatment; for pest or weed control at 4483.4 g/ha: 4 lb/acre; for pest or weed control at 8966.8 g/ha: 8 lb/acre. How it is done: (§8) Johnson grass (JG)--Sorgum helepense
as §2, §3
(§9) Compounds were tested at rates of application equivalent to 8 lbs. of actual compound per acre in a spray volume of 38 gallons per acre. Spray hood constants required to deliver the above volume are as follows:
(§10) Formulations for spray applications were prepared in 50 ml volumes with the following three components:
(§11) Formulations for the 4 lbs/acre rate were prepared by adjusting the amount of active ingredient accordingly.
as §6, §7

Experiment [3] concerns Barnyard grass (BG). The experiment in a line: Post-emergence herbicide test. The experiment is classed as in vivo. The note with it: Echinochloa crus-galli, 336 h, two weeks after treatment; for pest or weed control at 4483.4 g/ha: 4 lb/acre; for pest or weed control at 8966.8 g/ha: 8 lb/acre. How it is done:
(§12) Barnyard grass (BG)--Echinochloa crus-galli
as §2, §3, §9, §10, §11, §6, §7

The test system of experiment [4] is Amaranth pigweed (PW). As to the kind of experiment: Post-emergence herbicide test. The experiment is classed as in vivo, Amaranthus retroflexus. The note with it: 336 h, two weeks after treatment; for pest or weed control at 4483.4 g/ha: 4 lb/acre; for pest or weed control at 2241.7 g/ha: 2 lb/acre. How it is done:
Amaranth pigweed (PW)--Amaranthus retroflexus
as §2, §3
(§13) Pigweed and turnips: 1 or 2 true leaves above visible cotyledons.
as §9, §10, §11, §6, §7

The subject of experiment [5] is Turnip (TP). As to the kind of experiment: Post-emergence herbicide test. The experiment is classed as in vivo, Brassica sp. The note with it: Brassica rapa, post-emergence, 336 h, two weeks after treatment; for pest or weed control at 4483.4 g/ha: 4 lb/acre; for pest or weed control at 2241.7 g/ha: 2 lb/acre; for pest or weed control at 8966.8 g/ha: 8 lb/acre. How it is done:
(§14) Turnip (TP)--Brassica sp.
as §2, §3, §13, §4, §5, §6, §7

Experiment [6] has as its system Cotton (CT). The experiment in a line: Post-emergence herbicide test. The note with it: Gossypium hirsutum, post-emergence, 336 h, two weeks after treatment; for pest or weed control at 4483.4 g/ha: 4 lb/acre; for pest or weed control at 8966.8 g/ha: 8 lb/acre. The format is in vivo, Gossypium hirsutum var. DPL smooth leaf. How it is done: (§15) Cotton (CT)--Gossypium hirsutum var. DPL smooth leaf
as §2, §3
Cotton: first true leaf 1' in length; expanded cotyledons.
as §4, §10, §11, §6, §7

The test system of experiment [7] is Corn (CN). The experiment in a line: Post-emergence herbicide test. The note with it: Zea mays, 336 h, two weeks after treatment; for pest or weed control at 4483.4 g/ha: 4 lb/acre; for pest or weed control at 8966.8 g/ha: 8 lb/acre. The experiment is classed as in vivo. How it is done:
as §2, §3, §9, §10, §11, §6, §7

Experiment [8] has as its system Bean (BN). The experiment in a line: Post-emergence herbicide test. The format is in vivo, Phaseolus vulgaris var. Black Valentine. The note with it: Phaseolus vulgaris, post-emergence, 336 h, two weeks after treatment; for pest or weed control at 4483.4 g/ha: 4 lb/acre; for pest or weed control at 8966.8 g/ha: 8 lb/acre. How it is done: (§16) Bean (BN)--Phaseolus vulgaris var. Black Valentine
as §2, §3
Beans: primary leaves expanded, growing point at primary leaf nodes.
as §4, §10, §11, §6, §7

Experiment [9] has as its system Crabgrass (CG). As to the kind of experiment: Pre-emergence herbicide test. The format is in vivo, Digitaria sanquinalis. The conditions noted are these: Digitaria sanguinalis, pre-emergence, 336 h, two weeks after treatment; for pest or weed control at 8966.8 g/ha: 8 lb/acre. How it is done:
as §1, §2, §4, §5, §6, §7

Experiment [10] deals with Johnson grass (JG). As to the kind of experiment: Pre-emergence herbicide test. The conditions noted are these: Sorghum halepense, 336 h, two weeks after treatment; for pest or weed control at 8966.8 g/ha: 8 lb/acre. The experiment is classed as in vivo, Sorgum helepense. How it is done:
as §8, §2, §9, §10, §11, §6, §7

Experiment [11] concerns Barnyard grass (BG). The experiment in a line: Pre-emergence herbicide test. The format is in vivo. The conditions noted are these: Echinochloa crus-galli, 336 h, two weeks after treatment; for pest or weed control at 8966.8 g/ha: 8 lb/acre. The method, then: as §12, §2, §9, §10, §11, §6, §7
Experiment [12] relates to Turnip (TP). The experiment in a line: Pre-emergence herbicide test. The format is in vivo, Brassica sp. The conditions noted are these: Brassica rapa, pre-emergence, 336 h, two weeks after treatment; for pest or weed control at 8966.8 g/ha: 8 lb/acre. The method, then:
as §14, §2, §4, §5, §6, §7

In experiment [13] the test system is Cotton (CT). As to the kind of experiment: Pre-emergence herbicide test. The experiment is classed as in vivo, Gossypium hirsutum var. DPL smooth leaf. The note with it: Gossypium hirsutum, 336 h, two weeks after treatment; for pest or weed control at 8966.8 g/ha: 8 lb/acre. The method, then: as §15, §2, §9, §10, §11, §6, §7
The test system of experiment [14] is Corn (CN). As to the kind of experiment: Pre-emergence herbicide test. The format is in vivo. The note with it: Zea mays, 336 h, two weeks after treatment; for pest or weed control at 8966.8 g/ha: 8 lb/acre. The method, then: as §2, §9, §10, §11, §6, §7
Experiment [15] deals with Bean (BN). As to the kind of experiment: Pre-emergence herbicide test. The experiment is classed as in vivo, Phaseolus vulgaris var. Black Valentine. The conditions noted are these: Phaseolus vulgaris, 336 h, two weeks after treatment; for pest or weed control at 8966.8 g/ha: 8 lb/acre. The method, then: as §16, §2, §9, §10, §11, §6, §7

What is called pest or weed control is the degree to which the test organism was suppressed or injured, in per cent. Read a high pest or weed control as a strong effect.

Consider `CNC(=O)Nc1nnc(SCC(=O)OC)s1` [Example 56], for which the pest or weed control at 4483.4 g/ha in experiment [1] is 30%; in [2], 20%; in experiment [3] it was 20%; in experiment [4], 60%; in [5], 70%; in experiment [6], 60%. In addition, the pest or weed control at 4483.4 g/ha was determined as 30% in experiment [7] and 50% in [8].
On to `CNC(=O)Nc1nnc(SCC(C)=O)s1` [Example 54], for which the pest or weed control at 4483.4 g/ha came to 50% in experiment [1]; 30% in experiment [2]; 30% in experiment [3]; 90% in [4]; 80% in experiment [5]; 90% in experiment [6]. Also, the pest or weed control at 4483.4 g/ha in experiment [7] worked out at 30%; in [8] it was 100%. Also, the pest or weed control at 2241.7 g/ha in experiment [4] and in [5] was 60% in each case.
For the molecule `CNC(=O)Nc1nnc(SCCCCl)s1` [Example 61], the pest or weed control in experiment [1] (2 lb/acre) came out at 20%; in experiment [2] (2 lb/acre) it was 20%; in experiment [7] (2 lb/acre) it was 40%. Also, the pest or weed control at 4483.4 g/ha in experiment [1] is 90%; in experiment [2] it was 60%; in experiment [3], 70%; in experiment [4] it was 90%; in experiment [5] it was 80%; in experiment [6], 100%. Also, the results for the pest or weed control at 4483.4 g/ha in experiment [7] and in experiment [8] were 30% and 100%, respectively. In addition, the pest or weed control at 2241.7 g/ha came out at 40% in experiment [3] (2 lb/acre); 90% in experiment [4]; 100% in experiment [5]; 100% in experiment [6] (2 lb/acre); 100% in [8] (2 lb/acre).
`CCCCCCCCSc1nnc(NC(=O)NC)s1` [Example 78]: the pest or weed control in experiment [9] (1 lb/acre) came out at 20%. Also, the pest or weed control at 1120.85 g/ha in experiment [10] (1 lb/acre) was determined as 0%; in experiment [11] (1 lb/acre), 0%; in [12] (1 lb/acre) it was 0%; in [13] (1 lb/acre), 30%; in experiment [14] (1 lb/acre) it was 0%; in [15] (1 lb/acre), 80%. For the same molecule, the pest or weed control at 1120.85 g/ha amounted to 30% in [1] (1 lb/acre); 30% in [2] (1 lb/acre); 40% in [3] (1 lb/acre); 100% in experiment [5] (1 lb/acre); 80% in experiment [6] (1 lb/acre); 40% in [7] (1 lb/acre). In experiment [8] (1 lb/acre), the pest or weed control at 1120.85 g/ha came out at 100%.
For `CNC(=O)Nc1nnc(-c2ccc(C)cc2)s1` [Example 76], the pest or weed control at 8966.8 g/ha in [9] was determined as 20%; in [10], 0%; in experiment [11], 30%; in experiment [12] it was 40%; in [13] it was 100%; in experiment [14] it was 50%. The pest or weed control at 8966.8 g/ha in experiment [15] was 80%; in [1] it was 40%; in experiment [2], 30%; in experiment [3], 40%; in experiment [5], 60%; in [6], 50%. Besides, the pest or weed control at 8966.8 g/ha in experiment [7] turned out to be 30%; in [8] it was 50%.
Take `CNC(=O)Nc1nnc(-c2cccc(C(F)(F)F)c2)s1` [Example 73]: the pest or weed control at 4483.4 g/ha in experiment [9] (4 lb/acre) turned out to be 0%; in experiment [10] (4 lb/acre), 0%; in experiment [11] (4 lb/acre), 0%; in experiment [12] (4 lb/acre), 60%; in [13] (4 lb/acre), 100%; in experiment [14] (4 lb/acre) it was 50%. Also, the pest or weed control at 4483.4 g/ha was 80% in experiment [15] (4 lb/acre); 30% in experiment [1]; 50% in experiment [2]; 40% in [3]; 60% in [5]; 50% in experiment [6]. The pest or weed control at 4483.4 g/ha in experiment [7] is 30%; in experiment [8], 40%.
`CNC(=O)Nc1nnc(-c2ccc(Cl)cc2Cl)s1` [Example 75]: the pest or weed control at 8966.8 g/ha stood at 0% in experiment [9]; 0% in experiment [10]; 0% in experiment [11]; 40% in [12]; 30% in [13]; 0% in experiment [14]. Moreover, the pest or weed control at 8966.8 g/ha in experiment [15] came out at 100%; in experiment [1] it was 50%; in [2], 30%; in experiment [3], 40%; in [5], 80%; in experiment [6], 50%. Further, the pest or weed control at 8966.8 g/ha in [7] was determined as 30%; in [8], 100%.
As to `CCSCCSc1nnc(NC(=O)NC)s1` [Example 80], the pest or weed control at 8966.8 g/ha in experiment [9] was 50%; in experiment [10], 20%; in experiment [11] it was 20%; in experiment [12] it was 0%; in experiment [13] it was 50%; in experiment [14], 0%. The pest or weed control at 8966.8 g/ha worked out at 100% in experiment [15]; 90% in experiment [1]; 60% in experiment [2]; 50% in experiment [3]; 100% in [5]; 80% in [6]. The pest or weed control at 8966.8 g/ha in experiment [7] was 0%; in [8] it was 100%.
